The structures appear in SMILES notation.

The subject of assay [1] is myeloperoxidase accumulation (acetic acid-induced colitis). The assay can be described thus: Acetic Acid-Induced Colitis in Rats, In Vivo. More on the design: species or system male rats (Sprague-Dawley). An excerpt: The rat acetic acid-induced colitis bioassay has been described by J. E. Krawisz, et al. in Amer. J. Proc. Gastro. Col. Rec. Surg. 31: 11-18 (1980), and by P. Sharon and W. F. Stenson in Gastroenterolgy 88: 55-63 (1985) and 86: 453-460 (1984). Acetic acid-induced colitis is characterized by the movement of inflammatory cells into the colon, with the number of such cells in the mucosa being measured by the activity of myeloperoxidase, a marker enzyme for these cells. Positive desirable activity is indicated by a reduction in the high levels of myeloperoxidase caused by acetic acid. Male rats (Sprague-Dawley), weighing 150 to 300 g, were pretreated twice daily for two days with either the vehicle (water, or dimethylsulfoxide) or the test inhibitor compound suspended in water or dissolved in dimethylsulfoxide and orally administered. On the third day, the animals were dosed the same as on the previous two days, anesthetized with metofane, and 2 ml of 2.5% acetic acid was injected by syringe into the colonic lumen, followed immediately by 3 ml of air and a rinse consisting of 3 ml of phosphate-buffered saline (the acetic acid is present in the lumen for a sufficient period to cause inflammation without producing severe necrosis or irreversible damage). The animals were administered a second dose of the test compound in the same amount about 16 hours later. 24 hours after the acetic acid treatment, the animals were sacrificed, the colonic mucosa was surgically removed and homogenized in an aqueous buffer at pH 6 with a Tissumizer or similar device and myeloperoxidase was measured in the homogenate using o-phenylenediamine as a chromagen, as described by A. Voller, D. E. Bidwell and A. Bartlett in The Enzyme Linked Immunosorbent Assay (ELISA), Zoological Soc., London, 1979, pages 29-30. Control animals were pretreated with the vehicle and saline in place of acetic acid.

Assay [2] concerns Carrageenan pleurisy. The assay can be described thus: Carrageenan Pleurisy Test (In Vivo). Also on record: species or system male Lewis rats. The note with it: Rattus norvegicus, po, read-out: Rat Carrageenan Pleurisy % Inhib. of Exudate Volume. How it is done:
The animals utilized in these studies were male Lewis rats (Charles River Breeding Laboratories) weighing between 230-250 g. […] At 5 or 24 hours after CG injection, the rats were killed by decapitation, exsanguinated, and the pleural cavity exposed by cutting the ribs on both sides of the sternum. The exudate fluid was removed from the pleural cavity with disposable plastic pipettes and its volume quantitated. The pleural cavity was then washed once with phosphate buffered saline containing fetal bovine serum (1:1) and the washings combined with the exudate. The total number of cells in the pleural cavity was quantitated using a Coulter Counter (Model ZM) adjusted to exclude any contaminating RBC. (Published in "Plant Flavonoids in Biology & Medicine: Biochemical, Pharmacological and Structure-Activity Relationships" p. 231-242 (1986) Alan R. Liss, Inc.)

Assay [3] concerns the target T1, Δ^5 -lipoxygenase from rat basophilic leukemia (RBL-1) cells (Rattus norvegicus, UniProt P12527).
T1 construct: The isolated cytosolic fraction was stored in liquid N2 for up to 8 weeks without loss of 5-LO enzyme activity; endogenous in cells; host or cells: RBL-1 cells (ATCC CRL 1378), 113,000×g supernatant (cytosol)
T1 sequence (P12527 1-673): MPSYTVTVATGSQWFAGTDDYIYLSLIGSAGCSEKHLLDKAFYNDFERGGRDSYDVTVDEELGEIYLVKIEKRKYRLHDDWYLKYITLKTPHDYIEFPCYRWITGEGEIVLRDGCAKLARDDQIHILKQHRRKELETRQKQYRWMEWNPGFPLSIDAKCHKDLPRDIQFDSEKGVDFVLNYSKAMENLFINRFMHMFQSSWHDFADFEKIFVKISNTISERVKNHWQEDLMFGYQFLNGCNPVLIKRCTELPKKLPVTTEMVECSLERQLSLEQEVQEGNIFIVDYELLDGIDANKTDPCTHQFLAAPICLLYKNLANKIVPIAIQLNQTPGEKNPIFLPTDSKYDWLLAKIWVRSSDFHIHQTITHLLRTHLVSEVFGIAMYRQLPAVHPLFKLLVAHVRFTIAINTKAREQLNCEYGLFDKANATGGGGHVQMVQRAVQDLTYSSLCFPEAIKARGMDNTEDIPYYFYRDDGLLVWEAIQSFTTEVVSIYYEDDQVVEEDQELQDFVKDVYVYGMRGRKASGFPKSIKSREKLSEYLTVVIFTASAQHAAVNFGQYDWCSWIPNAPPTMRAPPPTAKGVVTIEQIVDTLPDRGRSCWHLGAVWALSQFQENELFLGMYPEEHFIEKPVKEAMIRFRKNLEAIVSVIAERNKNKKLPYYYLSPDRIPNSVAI
As to the kind of experiment: In vitro test for Δ^5-lipoxygenase inhibitors (5-HETE radioimmunoassay). The class given is biochemical. As to conditions: for IC50: RBL-1 5-LO, 5-HETE formation, read-out: Inhib. of Δ^5 Lipoxygenase IC50. As to the method:
RBL-1 cells (CRL 1378) were obtained from the American Type Culture Collection, Rockville, MD. DMEM and glutamine were purchased from Flow Labs, McLean, Va. FBS (Gibco, Grand Island, N.Y.) was heat-inactivated for 1 hour at 56° C. Reagents for protein determinations were obtained from Biorad, Rockville Center, N.Y. Arachidonic acid (approx. 99%), ATP (disodium salt), BHT, dextran (clinical grade), tetrasodium EDTA, gelatin, gentamycin sulfate solution, reduced glutathione, 1 M HEPES buffer, indomethacin, NaCl, reduced NADPH, Trizma 7.2, and Trizma 8.5 were purchased from Sigma Chemical, St. Louis, Mo. CaCL2 dihydrate, Norit A charcoal, and citric acid monohydrate were obtained from Fisher Scientific, Pittsburgh, Pa. […] A synthetic 5-HETE standard was supplied by Dr. M. Rosenberger, Dept. of Medicinal Chemistry, Hoffmann La-Roche, Nutley, N.J.; [see Corey, E. J., and Hashimoto, S. (1981) Tet. […] Approximately 7-9 days after thawing, RBL-1 cells growing in log phase were seeded at a density of 7500 viable cells/ml in a closed 89-liter spinner flask. […] RBL-1 cells were harvested by centrifugation at 4° C. at 1500×g for 10 minutes and were washed 3 times with ice cold 0.05M tris-hCl, pH 7.2, tetrasodium EDTA (buffer 1). The cells were washed last in 0.05M Tris-HCl containing 14 μM indomethacin, 1 mM glutathione, 1.5 mM NaCl, and 1 mM tetrasodium EDTA (buffer 2), resuspended at a density of 5×108'/ml approximately 10 ml) and disrupted manually at 4° C. using a 40 ml Dounce (type A pestle) homogenizer. After 5 minutes of homogenization, 95% cell lysis was confirmed by phase contrast microscopy. The broken cells were diluted 1:2 with buffer 2 and centrifuged at 12,380×g for 10 minutes at 4° C. to pellet cellular debris and granules. The 12,380×g supernatant was centrifuged at 113,000×g for 60 minutes to pellet microsomes. The high-speed supernatant (5.9±0.48 mg/ml protein) was frozen immediately in 1 ml aliquots using a dry ice/acetone bath. The isolated cytosolic fraction was stored in liquid N2 for up to 8 weeks without loss of 5-LO enzyme activity. Compounds were dissolved at 25 mM concentration in DMSO, then diluted to final concentrations using 95% ethanol. For a typical enzyme assay, the partially purified 5-LO preparation was preincubated with drug or vehicle for 10 minutes at 30° C. The assay tubes were then transferred at a 37° C. water bath where they received arachidonic acid (8.25 μM final concentration) to initiate 5-LO activity. […] The samples were immediately cooled on ice and neutralized by dilution with 0.05M Tris-HCl, pH 8.5, which contained 25 mg/1 BHT. A boiled cytosol control was placed at the end of each assay to emasure non-enzymatic oxidation of arachidonic acid. […] Under the assay conditions described, the 5-LO catalyzed the conversion of arachidonic acid to 5-HPETE which, as a consequence of peroxidase activity, was reduced to 5-HETE. A specific radioimmunoassay was employed to quantitate the amount (pmoles) of 5-HETE formed during the enzyme reaction. To prepare the immunogen, Dr. M. Rosenberger (Dept. of Medicinal Chemistry) converted the racemic 5-HETE lactone (Corey, E. J., and Hashimoto, S. (1981) Tet. Letters, 22, 299-302) to its hydrazine derivative. The hydrazide was conjugated to thiolated Keyhole Limpet Hemocyanin (Young, […]., and Rokach, J. (1982) Prostaglandins 23, 603-613) using N-ethyl-maleimide as previously described for LTB4 by (Young, R., N, Zomboni, R. and Rokach, J. 91983) Prostaglandins, 26, 605-613). New Zealand White rabbits received multiple intradermal injections on their backs with […] conjugate emulsified in complete Freund's adjuvant. A schedule of injections reported by Salmon (Salmon, J. A. (1978) Prostaglandins, 15, 383-397) was followed. After the monthly i.p. booster injections, blood was obtained from the marginal ear vein 5-7 days later and assessed for antibody titer. […]

Consider `CCCc1c(OCCc2ccc(O)c(O)c2)ccc(C(=O)O)c1O` [4 [2 (3,4 Dihydroxyphenyl)ethoxy]-2 hydroxy 3 propylbenzoic acid], for which the “Rat Acetic Acid Colitis Model % Inhib. of Myeloperoxidase Accumulation” value in assay [1] (10 mg/kg p.o) is reported as 56 ± 6%.

In the case of `CCCc1c(OCCCCCC(=O)c2cc(O)c(O)cc2F)ccc(C(=O)O)c1O` [4-[[6-(2-Fluoro-4,5-dihydroxyphenyl)-6-oxohexyl]oxy]-2-hydroxy-3-propylbenzoic acid], the “Rat Acetic Acid Colitis Model % Inhib. of Myeloperoxidase Accumulation” value in assay [1] (10 mg/kg p.o) stood at 40 ± 5%. Regarding `CCCc1c(OCCCCCCc2cccc(O)c2O)ccc(C(C)=O)c1O` [1-[4-[6-(2,3-Dihydroxyphenyl)hexyloxy]], the “Rat Acetic Acid Colitis Model % Inhib. of Myeloperoxidase Accumulation” value in assay [1] (10 mg/kg p.o) is reported as 51 ± 5%.

As to `CCCc1c(OCCCc2cccc(O)c2O)ccc(C(=O)O)c1O` [4-[3-(2,3-Dihydroxyphenyl)propoxy]-2-hydroxy-3-propylbenzoic acid], in assay [1] (10 mg/kg p.o), the “Rat Acetic Acid Colitis Model % Inhib. of Myeloperoxidase Accumulation” value is recorded as 54 ± 5%. Take `CCCc1c(OCCCCCCc2cc(C)c(O)c(O)c2C)ccc(C(=O)O)c1O` [4-[[6-(3,4-Dihydroxy-2,5-dimethylphenyl)hexyloxy]-2-hydroxy-3-propylbenzoicacid]: the “Rat Acetic Acid Colitis Model % Inhib. of Myeloperoxidase Accumulation” value is listed as 37 ± 6% in assay [1] (3 mg/kg p.o) and 85 ± 13% in assay [1] (10 mg/kg p.o). With `CCCc1c(OCCCCCc2c(Cl)ccc(O)c2O)ccc(C(=O)O)c1O` [4-[5-(2-Chloro-5,6-dihydroxyphenyl)pentyloxy]-2-hydroxy-3-propylbenzoic acid], the “Rat Acetic Acid Colitis Model % Inhib. of Myeloperoxidase Accumulation” value in assay [1] (3 mg/kg p.o) is 54 ± 9%.

As to `CCCc1c(OCCCCCCc2cccc(OC(C)=O)c2OC(C)=O)ccc(C(=O)O)c1O` [4-[6-[2,3-Bis(acetyloxy)phenyl]hexyloxy]-2-hydroxy-3-propylbenzoic acid], in assay [2] (at 75 mg/kg p.o), the inhibition in vivo at 75 mg/kg is 43%. For the same compound, the IC50 in assay [3] is 0.15 µM.

Take `Nc1cc(C(=O)O)ccc1OCCCCCCc1cccc(O)c1O` [3-Amino-4-[6-(2,3-dihydroxyphenyl)hexyloxy]benzoic acid]: the “Rat Acetic Acid Colitis Model % Inhib. of Myeloperoxidase Accumulation” value in assay [1] (1 mg/kg p.o) came to 55 ± 7%. On the same count and under the same terms, to `CCCc1c(OCCCCCc2c(O)c(O)cc(Cl)c2Cl)ccc(C(=O)O)c1O` [4-[5-(2,3-Dichloro-5,6-dihydroxyphenyl)pentyloxy]-2-hydroxy-3-propylbenzoicacid] belongs 73 ± 5%. For `CCCc1c(OCCCCCCc2cccc(O)c2O)ccc(C(=O)O)c1OC(C)=O` [2-Acetyloxy-4-[6-(2,3-dihydroxyphenyl)hexyloxy]-3-propylbenzoic acid], in assay [2] (at 100 mg/kg p.o), the inhibition in vivo at 100 mg/kg was determined as 42%. Further, the IC50 in assay [3] was found to be 0.19 µM. `CCCc1c(OCCCCCc2ccc(O)c(O)c2)ccc(C(C)=O)c1O` [1-[4-[5-(3,4-Dihydroxyphenyl)pentyloxy]-2-hydroxy-3-propylphenyl]-1-ethanone]: the “Rat Acetic Acid Colitis Model % Inhib. of Myeloperoxidase Accumulation” value in assay [1] (10 mg/kg p.o) is recorded as 52 ± 6%. For the compound `CCCc1c(OCCCCCc2c(O)c(O)c(Cl)c(Cl)c2Cl)ccc(C(=O)O)c1O` [4-[5-(2,3,4-Trichloro-5,6-dihydroxyphenyl)pentyloxy]-2-hydroxy-3-propylbenzoic acid], the “Rat Acetic Acid Colitis Model % Inhib. of Myeloperoxidase Accumulation” value in assay [1] (1 mg/kg p.o) was 115 ± 21%. In the case of `CCCc1c(OCCCCCC(=O)c2ccc(O)c(O)c2)ccc(C(=O)O)c1O` [4-[[6-(3,4-Dihydroxyphenyl)-6-oxohexyl]oxy]-2-hydroxy-3-propylbenzoic acid], the inhibition at 1 µM in assay [3] (read-out: Inhib. of Δ^5 Lipoxygenase, % inhibition at 1 μM) was 51%.

For the origin of these results see US5025036A, “Catechol carboxylic acids” (Hoffmann-La Roche Inc., priority 1989, dated 1991).
